Data taken from patent US20030149075A1, “Zoniporide mesylate pharmaceutical compositions and processes for improving solubility of zoniporide” (Pfizer Inc., priority 2002, published 2003).
Structures can show the parent of a compound that is named as a salt.

What was measured:
[1] = Aqueous solubility of Zoniporide / Zoniporide mesylate, including pH adjustment with acids; type: physicochemical
Description: The most commercially feasible and the most pharmaceutically acceptable means, in this particular instance, for increasing solubility of Zoniporide was via pH adjustment.
Further additions of methanesulfonic acid further improved solubility with decreasing pH.
The phrase “increase (or increasing) the solubility” means increasing the solubility of Zoniporide or Zoniporide mesylate to a value greater than the solubility of Zoniporide mesylate in water (i.e. greater than about 18 mgA/mL).
(§1) The use of methanesulfonic acid to lower the pH of pharmaceutical formulations is non-traditional in the pharmaceutical field. […] Typically, the pH of pharmaceutical intravenous formulations is not lower than about pH of 3, because of injection-site toleration problems that are inherent in low pH formulations. […] Reducing the pH below about 2, however, can further increase the concentration of Zoniporide, but may cause injection site toleration issues.

[2] = Injection-site toleration of low-pH Zoniporide formulations; type: in vivo; conditions: formulations adjusted with methanesulfonic acid to as low as about pH 2
Description: as §1

| SMILES | solubility of Zoniporide mesylate in water ([1]; in water, mgA/mL = mg/mL of active compound Zoniporide) | change in solubility on pH adjustment with methanesulfonic acid ([1]; addition of methanesulfonic acid, further additions further improved solubility with decreasing pH) | change in solubility on pH adjustment with typical pH adjusters ([1]; hydrochloric acid, sulfuric acid, phosphoric acid, aqueous solution, pH range acceptable for infusion) | injection-site toleration [2] |
| --- | --- | --- | --- | --- |
| N=C(N)NC(=O)c1cnn(-c2cccc3ncccc23)c1C1CC1 [Zoniporide mesylate] | about 18 mgA/mL |  |  |  |
| N=C(N)NC(=O)c1cnn(-c2cccc3ncccc23)c1C1CC1 [Zoniporide, N-(5-cyclopropyl-1-quinolin-5-yl-1H-pyrazole-4-carbonyl)-guanidine] |  | increase in solubility | no significant increase in solubility | without the expected injection-site toleration issues |
